Here are results for 2 compounds from publication PMC10749895, “ppGpp accumulation reduces the expression of the global nitrogen homeostasis-modulating NtcA regulon by affecting 2-oxoglutarate levels” (Communications Biology, 2023).

Test [1] deals with T1, Synpcc7942_0903 (aconitase, ACN) (Synechococcus elongatus, UniProt Q31PT6).
T1 construct: full-length gene in pET28a (NdeI/HindIII), N-terminal His6-tag, E. coli BL21-CodonPlus(DE3)-RIL, Ni column, purified anaerobically
In words: aconitase activity, cis-aconitate formation at […] nm. The test is classed as biochemical. The conditions noted are these: 1 mM citrate, 100 mM potassium phosphate pH 8.0, 30 °C, anaerobic.

For test [2], the target named is T1, Synpcc7942_0903 (aconitase, ACN). The description is as above. The conditions noted are these: 0.25-10 µM ppGpp, 10 min preincubation; 1 mM citrate, 100 mM potassium phosphate pH 8.0, 30 °C, anaerobic; inhibitor. The test is classed as biochemical.

The structures appear in SMILES notation.

With `O=C(O)CC(O)(CC(=O)O)C(=O)O` [citrate], the “aconitase activity, cis-aconitate formation at 240 nm” value in test [1] is “monitoring the formation of cis-aconitate in a reaction mixture containing”.

As for `Nc1nc2c(ncn2[C@@H]2O[C@H](COP(=O)(O)OP(=O)(O)O)[C@@H](OP(=O)(O)OP(=O)(O)O)[C@H]2O)c(=O)[nH]1` [ppGpp], in test [2], the “relative activity (% of activity without ppGpp) at maximum inhibition” value was ~ 63.
